Laboratory results taken from patent publication US20060253079A1, “Stratum corneum piercing device” (priority 2005, published 2006).
Where two headings read alike, the source gives them in different places.

System: skin site on subject's forearm or face
Details: for ENHANCED ACTIVE DELIVERY (HISTAMINE RESPONSE): 0.10% wt/wt histamine, visual inspection after 10 minutes; for PRESENCE OF PIH: graded visually for up to at least 3 weeks; for PRESENCE OF ERYTHEMA: 10 microliters 0.10% wt/wt histamine on treated site
[1] = test subject 1, forearm, 225 micrometer, 8 lbs/cm^2
[2] = test subject 2, forearm, 225 micrometer, 6 lbs/cm^2
[3] = test subject 4, forearm, 185 micrometer, 4.6 lbs/cm^2
[4] = test subject 5, forearm, 185 micrometer, 8 lbs/cm^2
[5] = test subject 6, forehead, 145 micrometer, 5 lbs/cm^2

For `NCCc1c[nH]cn1` [histamine], the “skin's reaction to topically applied histamine” value (control test sites: histamine solution on untreated skin sites not pierced by the microprotrusion members) was “did not result in erythema”, the “skin's reaction to topically applied histamine” value (following microprotrusion treatment) was “manifested in erythema” and the “ENHANCED ACTIVE DELIVERY (HISTAMINE RESPONSE)” value (“ENHANCED ACTIVE DELIVERY” for short) [1] was “Yes,”. For the same compound, the “PRESENCE OF PIH” value [1] was “Yes”, the “PRESENCE OF ERYTHEMA” value (test subject 1, forearm, microprotrusion length 225 micrometer, 8 lbs/cm^2) was “Present after” and the “ENHANCED ACTIVE DELIVERY” value [2] was “Yes,”. For the same compound, the “PRESENCE OF PIH” value [2] was “Yes”, the “PRESENCE OF ERYTHEMA” value (test subject 2, forearm, microprotrusion length 225 micrometer, 6 lbs/cm^2) was “Present after” and the “PRESENCE OF PIH” value (test subject 3, cheek (bone), 185 micrometer, 3.2 lbs/cm^2) was “No”. The “PRESENCE OF ERYTHEMA” value (test subject 3, cheek (bone), microprotrusion length 185 micrometer, 3.2 lbs/cm^2) was “No”, the “ENHANCED ACTIVE DELIVERY” value [3] was “Yes,” and the “PRESENCE OF PIH” value [3] was “No”. The “PRESENCE OF ERYTHEMA” value (test subject 4, forearm, microprotrusion length 185 micrometer, 4.6 lbs/cm^2) was “No”, the “ENHANCED ACTIVE DELIVERY” value [4] was “Yes,” and the “PRESENCE OF PIH” value [4] was “Yes”. For the same compound, the “PRESENCE OF ERYTHEMA” value (test subject 5, forearm, microprotrusion length 185 micrometer, 8 lbs/cm^2) was “Present after”, the “ENHANCED ACTIVE DELIVERY” value [5] was “Yes,” and the “PRESENCE OF PIH” value [5] was “No”. For the same compound, the “PRESENCE OF ERYTHEMA” value (test subject 6, forehead, microprotrusion length 145 micrometer, 5 lbs/cm^2) was “No”.
